Literature values, collected in patent US7968511B2, “Combination therapy with glatiramer acetate and mitoxantrone for the treatment of multiple sclerosis” (Teva Pharmaceutical Industries, Ltd., priority 2003, dated 2011).

Test system: multiple sclerosis (MS)
Settings: daily subcutaneous injections, 20 mg/injection

L-glutamic acid polymer with L-alanine, L-lysine and L-tyrosine, acetate (salt) [glatiramer acetate]
reduce: appearance of "black holes" | appearance of new lesions by magnetic resonance imaging (MRI) | progression of disability | relapse rates
